PubChem BioAssay AID1996
Converted amounts (≈) assume the structure as drawn.

conditions: buffer; pH 7.4; 200.0 µM

Row | SMILES | solubility kinetic [µg/mL]
1 | COc1ccc2c([N+](=O)[O-])c(N3CCCC3)[nH]c2c1 | 37.7 (≈ 144 µM)
2 | CC(NC(=O)CCC(=O)NCc1ccc(F)cc1)c1ccccc1 (stereo not given) | > 49.3
3 | CC(C)N(CCC#N)C(=O)Nc1ccc2c(c1)CCO2 | > 41
4 | C=CCn1ccc2c([N+](=O)[O-])cccc2c1=O | 30.2 (≈ 131 µM)
5 | CN(C(=O)c1cccc(S(=O)(=O)NCc2ccccc2)c1)C1CCCCC1 | 50.7 (≈ 131 µM)
6 | CC1(C)CC(NC(=O)c2cc(Cl)ccc2Cl)CC(C)(C)N1 | > 49.4
7 | CCc1ccccc1NC(=O)NC(C)c1ccc2c(c1)OCO2 (stereo not given) | 0.6 (≈ 1.92 µM)
8 | CC(C)(C)P(=O)(N1CCOCC1)N1CCOCC1 | > 41.4
9 | CCc1ccc(CCC(=O)Nc2ccc(Cl)cc2)o1 | 8.1 (≈ 29.2 µM)
10 | O=C(CSc1nccc(=O)[nH]1)Nc1ccc(Oc2ccccc2)cc1 | 11.5 (≈ 32.5 µM)
11 | CSc1ncccc1C(=O)Nc1ccncc1 | 34.6 (≈ 141 µM)
12 | O=C(NC1CC1)c1sc2cc(F)ccc2c1Cl | 9.4 (≈ 34.8 µM)
13 | NC(=O)CN1CCN(Cc2ccc3c(c2)OCO3)CC1 | > 41.6
14 | Cc1ccc(-c2nc(C(F)(F)F)cc(=O)[nH]2)cc1 | 18.4 (≈ 72.4 µM)
15 | COc1ccc(C(=O)NCCNc2ccc([N+](=O)[O-])cn2)cc1 | 16.4 (≈ 51.8 µM)
16 | CN(CC(=O)Nc1ccc(F)cc1)C(=O)CN1C(=O)NC2(CCCCC2)C1=O | 0.7 (≈ 1.79 µM)
17 | O=C(NCC1CCCO1)c1cc2ccccc2o1 (stereo not given) | > 36.8
18 | O=C(COc1ccc(Cl)cc1Br)NC1CC1 | > 45.7
19 | Cc1ccc(S(=O)(=O)NCC(=O)OCC(=O)NC2CCCCC2)cc1 | > 55.3
20 | CN1CCN(c2nc(-c3ccc(Cl)cc3)cc(=O)[nH]2)CC1 | 39.8 (≈ 131 µM)
21 | N#C/C(=C\c1ccc[nH]1)C(=O)Nc1ccccc1[N+](=O)[O-] | 0.4 (≈ 1.42 µM)
22 | CC(=O)N=c1sccn1CC(O)c1ccccc1 (stereo not given) | > 39.3
23 | Cc1ccc(C)n1-c1nccc(-c2ccco2)n1 | 23.5 (≈ 98.2 µM)
24 | CCOc1ccc(N2C(=O)/C(=C/c3ccc(C)o3)C(=O)NC2=S)cc1 | > 53.5

Row | SMILES | solubility kinetic [µg/mL]
25 | CN(c1ccccc1)S(=O)(=O)c1ccc2[nH]c(=O)[nH]c2c1 | 16.6 (≈ 54.7 µM)
26 | Cn1cc(Br)c(-c2cccc(N3C(=O)CCCC3=O)c2)n1 | > 52.2
27 | CN1CCC(CNC(=O)Nc2csc3ccccc23)CC1 | > 45.5
28 | O=C(/C=C/c1cccc([N+](=O)[O-])c1)OCC1CCCO1 (stereo not given) | 34.4 (≈ 124 µM)
29 | Cc1ccccc1NC(=O)NCc1ccccn1 | > 36.2
30 | CCc1ccc(NC(=O)C(C)OC(=O)/C=C/c2ccc(O)c(OC)c2)cc1 (stereo not given) | 4.1 (≈ 11.1 µM)
31 | c1ccc2c(c1)CCc1c-2nc2ccccc2c1N1CCOCC1 | 10.5 (≈ 33.2 µM)
32 | Cn1c(C2=C(O)CN(c3ccccc3)C2=N)nc2ccccc21 | 44.5 (≈ 146 µM)
33 | COc1ccc(C(=O)NC(=S)N2CCOCC2)cc1[N+](=O)[O-] | > 48.8
34 | CN1CCN(C(=O)/C=C/c2c(F)cccc2Cl)CC1 | > 42.4
35 | Cc1cc(Br)ccc1S(=O)(=O)NCc1ccccc1 | 32.5 (≈ 95.5 µM)
36 | Cc1ccc(NC(=O)CCc2c(C)[nH]c(=O)c(C#N)c2C)cc1 | 12.3 (≈ 39.8 µM)
37 | Cc1cccc(CC(=O)N2CCOCC2)c1 | > 32.9
38 | CCc1ccc(C2CC(=O)Nc3c2c(=O)nc2c(C)cccn32)cc1 (stereo not given) | > 50
39 | Oc1ccc(/C=N/N2CCCCC2)cc1O | > 33
40 | O=C(Nc1ccccc1)c1ccco1 | > 28.1
41 | CSc1ccc(S(=O)(=O)N2CCC(C(=O)NC3CC3)CC2)cc1 | 36 (≈ 102 µM)
42 | CCCCN(C(=O)c1c(C)noc1C)c1c(N)n(CCC)c(=O)[nH]c1=O | 18.6 (≈ 51.2 µM)
43 | Cc1ccc2c(c1)/C(=C/c1ccccc1C)C(=O)N2 | 2.8 (≈ 11.2 µM)
44 | Cc1nn(C(=O)/C(C#N)=C/N(C)C)c(C)c1C | > 34.8
45 | N#C/C(=C\c1cccnc1)C(=O)Nc1ccc(Cl)cc1 | 5.7 (≈ 20.1 µM)
46 | CN(Cc1nc(CCc2ccccc2)no1)Cc1cccs1 | 18.4 (≈ 58.7 µM)
47 | CSc1ncccc1C(=O)OCC(=O)Nc1ccc(Cl)cn1 | 3.6 (≈ 10.7 µM)
48 | Cc1ccc(CNc2ccc3c(c2)ncn3C(C)C)cc1 | > 41.9

Row | SMILES | solubility kinetic [µg/mL]
49 | NC(=O)C(c1ccccc1)c1ccc(C(=O)c2ccccc2)cc1 (stereo not given) | < 0.7
50 | O=S(=O)(Nc1ccon1)c1ccc(F)c(F)c1 | 25.9 (≈ 99.5 µM)
51 | Cc1cc(NC(=O)COc2ccccc2C#N)no1 | 11.2 (≈ 43.5 µM)
52 | CCC1(C)Cc2ccccc2-c2[nH]c(=S)[nH]c(=O)c21 (stereo not given) | 22.1 (≈ 81.1 µM)
53 | Cc1cccc(NC(=S)NC(=O)c2ccco2)c1C | 36.7 (≈ 134 µM)
54 | CCOc1ccccc1N1CN(Cc2ccccc2)CNC1=S | > 49.1
55 | O=C(Nc1ccccc1Br)c1ccc2nccnc2c1 | > 49.2
56 | CC(C)CC(=O)Nc1ccccc1N1CCN(c2ccccc2)CC1 | 1.6 (≈ 4.74 µM)
57 | COc1ccc(NC(=O)CNC(=O)c2ccco2)cc1S(=O)(=O)Nc1cc(C)ccc1Br | 17.1 (≈ 32.7 µM)
58 | C1=C(c2c[nH]c3ccccc23)CCN(Cc2ccccc2)C1 | 7.2 (≈ 25 µM)
59 | COc1ccc(-n2nc3c(c2NC(C)=O)CS(=O)(=O)C3)cc1 | > 48.2
60 | O=C(Nc1sc2c(c1C(=O)O)CCC2)c1cccc(Cl)c1 | > 48.3
61 | CC(=O)Oc1cccc(-c2nc3ccccc3c(=O)o2)c1 | 7.9 (≈ 28.1 µM)
62 | Cc1ccc(Sc2ccc(S(=O)(=O)Nc3ccc(C(=O)O)cc3)cc2)cc1C | > 62
63 | Cc1ccc(CNC(=O)C2CC(=O)N(C3CCCC3)C2)cc1 (stereo not given) | 41.2 (≈ 137 µM)
64 | COc1ccccc1-c1nnc(SCC(=O)N2CCCC2)o1 | > 47.9
65 | CCCn1c(=O)c2[nH]cnc2n(-c2ccc(Cl)cc2)c1=O | 44.9 (≈ 147 µM)
66 | C=CCC(=O)N1CCCC(CCC(=O)NCc2ccccc2F)C1 (stereo not given) | > 49.9
67 | COC(=O)[C@@H]1CCCN1Cc1nc(Cc2ccc(OC)c(OC)c2)no1 | > 54.2
68 | O=C(NC12CC3CC(CC(C3)C1)C2)c1cc([N+](=O)[O-])ccc1Cl | 0.6 (≈ 1.79 µM)
69 | Cc1ccc2c(CN3CCOCC3)cc(=O)oc2c1 | > 38.9
70 | NS(=O)(=O)c1ccc(NC(=O)COC(=O)c2ncc(Cl)c(Cl)c2Cl)cc1 | 54.7 (≈ 125 µM)
71 | COc1ccc(N2C(=O)CC(NCC#N)C2=O)cc1 (stereo not given) | 33.1 (≈ 128 µM)
72 | CN(c1nc2ccccc2[nH]c1=O)C1CCCCC1 | 2.9 (≈ 11.3 µM)

Row | SMILES | solubility kinetic [µg/mL]
73 | Cc1ccc(NC(=O)CN2C(=O)c3ccccc3S2(=O)=O)cc1C | 5.9 (≈ 17.1 µM)
74 | CS(=O)(=O)Nc1ccccc1C(=O)OCC(=O)NC1CC1 | > 46.9
75 | O=c1cc(Cl)[nH]c(=O)n1Cc1ccccc1 | > 35.5
76 | Cc1cc(C)n(/C(=C\N(C)C)C(=O)c2cccc([N+](=O)[O-])c2)n1 | > 47.2
77 | Fc1ccc(CNc2ccccn2)cc1 | 24.3 (≈ 120 µM)
78 | O=C(c1ccc2ccccc2c1)N1CCN(Cc2ccccc2)CC1 | > 49.6
79 | Cn1cc(C(=O)OCC(=O)NC2CCCCC2)c2ccccc21 | 4.8 (≈ 15.3 µM)
80 | COC(=O)CNC(=O)CSc1ccccn1 | > 36
81 | O=C(Nc1cccc(S(=O)(=O)N2CCCCCC2)c1)c1ccc(Cl)nc1 | 8.2 (≈ 20.8 µM)
82 | CCCc1cc(C(=O)Nc2cccc([N+](=O)[O-])c2)cs1 | 1.7 (≈ 5.86 µM)
83 | Cc1noc(C)c1-c1nc(CSc2ccccc2)no1 | 0.8 (≈ 2.78 µM)
84 | N#Cc1cccnc1N1CCN(C(=O)c2ccccc2)CC1 | 43.4 (≈ 148 µM)
85 | Cc1cnc(NC(=O)Cc2ccccc2F)s1 | 3.4 (≈ 13.6 µM)
86 | CC1(C2CC2)NC(=O)N(CC(=O)Nc2ccc(F)cc2F)C1=O (stereo not given) | > 48.5
87 | Nc1cc(=O)[nH]c(SCCSc2ccccc2)n1 | 9.6 (≈ 34.4 µM)
88 | Cc1cc(C)nc(Nc2ccccc2F)n1.Cl | 26.4
89 | Cn1c(COc2ccc(C(=O)O)cc2)nc2ccccc21 | > 42.3
90 | CN(CC(=O)O)S(=O)(=O)c1ccc2c(c1)NC(=O)CC(=O)N2 | > 49.1
91 | CCOc1ncccc1C(=O)OCc1c(F)cccc1Cl | 4.6 (≈ 14.9 µM)
92 | CCOC(=O)N1CCN(C(=O)COc2cccc3c2CCN(CC)C3=O)CC1 | 44.5 (≈ 114 µM)
93 | CN(CC(=O)Nc1ccc(Cl)c(C(F)(F)F)c1)C(=O)COC(=O)C1CC2CCCC(C1)C2=O (stereo not given) | 59.2 (≈ 121 µM)
94 | COC(=O)[C@H](C)NC(=O)NCc1ccccc1 | > 35.4
95 | COc1ccc(NC(=O)C2C(c3ccccc3)C2(Cl)Cl)cc1 (stereo not given) | < 0.7
96 | Cc1ccc(C)c(NC(=O)C2CC3CCC2C3)c1 (stereo not given) | 10.6 (≈ 43.6 µM)

Row | SMILES | solubility kinetic [µg/mL]
97 | CCCn1c(COc2ccccc2)nc2ccccc21 | 37.4 (≈ 140 µM)
98 | COc1ccc(C(=O)CCC(=O)Nc2ccc(Cl)cc2)cc1 | < 0.7
99 | CCCC(=O)Nc1ccc(OCC(O)CNC(C)C)c(C(C)=O)c1.Cl (stereo not given) | > 55.9
100 | CC(NC(=O)C12CC3CC(C)(CC(C)(C3)C1)C2)c1ccncc1 (stereo not given) | 41.9 (≈ 134 µM)
101 | Cn1c(O)c(/C=C2/C=CC=N2)c(=O)[nH]c1=O | > 32.9
102 | O=C(NCc1ccccc1)c1cc2ccc(O)cc2oc1=O | 6.3 (≈ 21.3 µM)
103 | O=C(Oc1c(-c2ccccc2)c(=O)n2c3c(cccc13)CC2)c1ccco1 | 32.6 (≈ 91.2 µM)
104 | CCOc1ccccc1NC(=O)NCc1ccco1 | 9.8 (≈ 37.6 µM)
105 | Cc1ccc(C2C(C#N)=C(N)Oc3cc(C)oc(=O)c32)o1 (stereo not given) | > 42.6
106 | COc1ccc(C(=O)NCC(=O)OCc2ccccc2F)cc1 | 47.6 (≈ 150 µM)
107 | Cc1ccnn1-c1ccc(C(=O)NCc2ccccc2CN2CCOCC2)cc1 | > 58.6
108 | CCN(c1cccc(C)c1)C1C(=O)c2ccccc2N1C(C)=O (stereo not given) | > 46.3
109 | O=S(=O)(c1cccs1)N1CCC(CO)(Cc2cccc(F)c2)CC1 | 53.8 (≈ 146 µM)
110 | CCOc1ccccc1NC(=O)NCCN1CCCCC1 | > 43.7
111 | Cc1ccc(OCC(=O)NCCCNC(=O)c2ccco2)cc1C | > 49.6
112 | Nc1ccc(S(=O)(=O)Nc2nc3ccccc3o2)cc1 | > 43.4
113 | Cl.O=C(NCCCn1ccnc1)c1ccccc1F | > 42.6
114 | O=C(CN1C(=O)NC(c2ccc(F)cc2)C1=O)NC1CCCCC1 (stereo not given) | > 50
115 | CCOC(=O)CNC(=S)NN(C)C | > 30.8
116 | CC1CCc2c(sc3ncn(CCO)c(=O)c23)C1 (stereo not given) | > 39.7
117 | CC(=O)N(CN1C(=O)CCC1=O)c1ccc(Cl)c(Cl)c1 | > 47.3
118 | O=C(Cc1c(Cl)cccc1Cl)OCC(=O)N1CCOCC1 | > 49.8
119 | Cc1ccc(F)cc1NC(=O)CCc1c(C)[nH]c(=O)c(C#N)c1C | > 49.1
120 | Cc1cc(C(=O)NCC2COc3ccccc3O2)c2ccccc2n1 (stereo not given) | 9.3 (≈ 27.8 µM)
